The record followed here is ChEMBL document CHEMBL4014333, “Discovery of Small Molecules for Repressing Cap-Independent Translation of Human Vascular Endothelial Growth Factor (hVEGF) as Novel Antitumor Agents” (J Med Chem, 2017).

For test [1], the species on record is Homo sapiens. Nature of the test: Destabilization of human wild type internal ribosome entry site A RNA G-quadruplex assessed as melting temperature at 5 uM by CD spectra method (reference value: 80.9 +/- 0.8 degreeC).
For test [2], the species on record is Homo sapiens. Nature of the test: Destabilization of human wild type internal ribosome entry site A RNA G-quadruplex expressed in MCF7 cells assessed as down regulation of VEGF-A translation up to 0.5 uM after 24 hrs by dual-luciferase reporter gene assay relative to control. In kind it is cell-based. On the technique in general: A reporter such as luciferase makes a cellular process visible.

The species entered for test [3] is Homo sapiens. Nature of the test: Binding affinity to biotin-labeled human 5'-UGAUGAGUGUGAGGAGGA-3' RNA G-quadruplex by SPR analysis.
A short description of test [4]: Binding affinity to biotin-labeled DNA hairpin (unknown origin) by SPR analysis. (Surface plasmon resonance follows binding to a sensor surface in real time, without labels.)
Test [5] is filed under the species Homo sapiens. In words: Binding affinity to biotin-labeled human wild type internal ribosome entry site A RNA G-quadruplex by SPR analysis.
Test [6] is filed under the species Homo sapiens. In words: Destabilization of human 5'-UGAAGAGUGUGAGUAGUA-3' RNA expressed in MCF7 cells assessed as down regulation of VEGF-A translation at up to 1.5 uM after 24 hrs by dual-luciferase reporter gene assay. In kind it is cell-based.

The structures appear in SMILES notation. Activity calls are given as the source filed them.

With `CN(C)CCCNC1C2=Nc3ccccc3C2=Nc2ccccc21` (centres undefined), the Tm in test [1] is greater than 81 °C. Moreover, the outcome in test [2] was inactive.
Take `C[n+]1c2ccccc2c(NCCN2CCCCC2)c2oc3ccc(OCC[N+]4(C)CCCCC4)cc3c21`: the result in test [3], in test [4] and in test [5] was Active.
As to `CN(C)CCNc1c2ccccc2[n+](C)c2c1oc1ccc(OCC[N+]3(C)CCCCC3)cc12`, the result in test [3], in test [4] and in test [5] was Active.
As for `C[n+]1c2ccccc2c(NCCCO)c2[nH]c3ccccc3c21`, the result in test [3], in test [4] and in test [5] was Active.
Consider `CN(C)CCCNc1c2ccccc2[n+](C)c2c1oc1ccc(OCC[N+]3(C)CCOCC3)cc12`, for which the outcome in test [3], in test [4] and in test [5] was Active.
On to `CCN(CC)CCCNc1c2ccccc2[n+](C)c2c1oc1ccc(OCCC[N+](C)(C)C)cc12`, for which the result in test [3], in test [4] and in test [5] was Active.
Consider `C[n+]1c2ccccc2c(NCCN2CCCCC2)c2oc3ccc(OCC[N+]4(C)CCOCC4)cc3c21`, for which the outcome in test [3], in test [4] and in test [5] was Active.
`CN(C)CCCNc1c2ccccc2[n+](C)c2c1oc1ccc(OCC[N+](C)(C)C)cc12`: the outcome in test [3], in test [4] and in test [5] was Active.
On to `COc1ccc2cc3[n+](cc2c1NCCc1ccccc1)CCc1cc2c(cc1-3)OCO2`, for which the result in test [3], in test [4] and in test [5] was Active.
Take `CCN(CC)CCCNc1c2ccccc2[n+](C)c2c1oc1ccc(OCC[N+]3(C)CCCCC3)cc12`: the result in test [3], in test [4] and in test [5] was Active.
Regarding `C[n+]1c2ccccc2c(NCCCN2CCOCC2)c2oc3ccc(OCC[N+](C)(C)C)cc3c21`, the outcome in test [3], in test [4] and in test [5] was Active.
Regarding `C[n+]1c2ccccc2c(NCCCN2CCOCC2)c2oc3ccc(OCC4CC[N+](C)(C)CC4)cc3c21`, the result in test [3], in test [4] and in test [5] was Active.
Take `NC(=O)c1ccccc1NC(=O)c1ccccc1[N+](=O)[O-]`: the outcome in test [6] was inactive.
For `C[n+]1c2ccccc2c(NCCN2CCCCC2)c2oc3ccc(OCC4CC[N+](C)(C)CC4)cc3c21`, the outcome in test [3], in test [4] and in test [5] was Active.
Turning to `C[n+]1c2ccccc2c(NCCN2CCCCC2)c2oc3ccc(OCC[N+](C)(C)C)cc3c21`, the result in test [3], in test [4] and in test [5] was Active.
As for `CCN(CC)CCCNc1c2ccccc2[n+](C)c2c1oc1ccc(OCC[N+](C)(C)C)cc12`, the result in test [3], in test [4] and in test [5] was Active.
For `CN(C)CCNc1c2ccccc2[n+](C)c2c1oc1ccc(OCC3CC[N+](C)(C)CC3)cc12`, the outcome in test [3], in test [4] and in test [5] was Active.
In the case of `COc1ccc2cc3[n+](cc2c1NCCCN(C)C)CCc1cc2c(cc1-3)OCO2`, the result in test [3], in test [4] and in test [5] was Active.
As for `C[n+]1c2ccccc2c(NCC(=O)NCC(=O)NC(Cc2ccccc2)C(=O)O)c2oc3ccccc3c21` (centres undefined), the result in test [3], in test [4] and in test [5] was Active.
As for `CN(C)CCNc1c2ccccc2[n+](C)c2c1oc1ccc(OCC[N+](C)(C)C)cc12`, the result in test [3], in test [4] and in test [5] was Active.
In the case of `CCN(CC)CCNC(=O)COc1ccc2oc3c(NCCN(CC)CC)c4ccccc4[n+](C)c3c2c1`, the outcome in test [3], in test [4] and in test [5] was Active.
Consider `CN(C)CCNc1c2ccccc2[n+](C)c2c1oc1ccc(OCCC[N+](C)(C)C)cc12`, for which the outcome in test [3], in test [4] and in test [5] was Active.
Regarding `C[n+]1c2ccccc2c(NCCN2CCCCC2)c2oc3ccc(OCC(=O)NCCN4CCCCC4)cc3c21`, the result in test [3], in test [4] and in test [5] was Active.
As to `CN1CCC(COc2ccc3oc4c(NCC(=O)NCC(=O)NC(CCCNC(=N)N)C(=O)NC(CC(=O)O)C(=O)O)c5ccccc5nc4c3c2)CC1` (centres undefined), the outcome in test [3], in test [4] and in test [5] was Active.
Take `CN(C)CCCNc1c2ccccc2nc2c1oc1cc(OCCCN(C)C)ccc12`: the outcome in test [3], in test [4] and in test [5] was Active.
For `COc1ccc2cc3[n+](cc2c1NCCCN1CCCC1)CCc1cc2c(cc1-3)OCO2`, the result in test [3], in test [4] and in test [5] was Active.
As for `C[n+]1c2ccccc2c(NCCN2CCOCC2)c2oc3ccc(OCC[N+](C)(C)C)cc3c21`, the result in test [3], in test [4] and in test [5] was Active.
For `C[n+]1c2ccccc2c(NCCCN2CCOCC2)c2oc3ccc(OCC[N+]4(C)CCOCC4)cc3c21`, the result in test [3], in test [4] and in test [5] was Active.
Regarding `CCN(CC)CCCNc1c2ccccc2[n+](C)c2c1[nH]c1ccccc12`, the outcome in test [3], in test [4] and in test [5] was Active.
In the case of `CCN(CC)CCNc1c2ccccc2[n+](C)c2c1oc1ccc(OCC[N+]3(C)CCOCC3)cc12`, the outcome in test [3], in test [4] and in test [5] was Active.
`CCN(CC)CCCNc1c2ccccc2[n+](C)c2c1oc1ccc(OCC[N+]3(C)CCOCC3)cc12`: the result in test [3], in test [4] and in test [5] was Active.
`CCN(CC)CCNc1c2ccccc2[n+](C)c2c1oc1ccc(OCCC[N+](C)(C)C)cc12`: the result in test [3], in test [4] and in test [5] was Active.
As to `C[n+]1c2ccccc2c(NCCCN2CCOCC2)c2oc3ccc(OCCC[N+](C)(C)C)cc3c21`, the outcome in test [3], in test [4] and in test [5] was Active.
As to `CN(C)CCNc1c2ccccc2[n+](C)c2c1oc1ccccc12`, the outcome in test [3], in test [4] and in test [5] was Active.
As for `CCN(CC)CCNc1c2ccccc2[n+](C)c2c1oc1ccc(OCC[N+]3(C)CCCCC3)cc12`, the outcome in test [3], in test [4] and in test [5] was Active.
For the compound `COc1ccc2cc3[n+](cc2c1NCCCN1CCOCC1)CCc1cc2c(cc1-3)OCO2`, the outcome in test [3], in test [4] and in test [5] was Active.
In the case of `C[n+]1c2ccccc2c(NCCN2CCOCC2)c2oc3ccc(OCC4CC[N+](C)(C)CC4)cc3c21`, the result in test [3], in test [4] and in test [5] was Active.
Consider `CCN(CC)CCCNc1c2ccccc2[n+](C)c2c1oc1ccc(OCC3CC[N+](C)(C)CC3)cc12`, for which the outcome in test [3], in test [4] and in test [5] was Active.
In the case of `C[n+]1c2ccccc2c(NCCN2CCOCC2)c2oc3ccc(OCCC[N+](C)(C)C)cc3c21`, the result in test [3], in test [4] and in test [5] was Active.
As to `CCN(CC)CCCNc1c2ccccc2[n+](C)c2c1oc1ccc(OCC(=O)NCCCN(C)C)cc12`, the result in test [3], in test [4] and in test [5] was Active.
As for `CN(C)CCNc1c2ccccc2[n+](C)c2c1oc1ccc(OCC[N+]3(C)CCOCC3)cc12`, the outcome in test [3], in test [4] and in test [5] was Active.
As to `CN(C)CCNc1c2ccccc2[n+](C)c2c1[nH]c1ccc(F)cc12`, the result in test [3], in test [4] and in test [5] was Active.
Regarding `CN(C)CCCNc1c2ccccc2[n+](C)c2c1[nH]c1ccc(F)cc12`, the result in test [3], in test [4] and in test [5] was Active.
Turning to `CN(C)CCCNc1c2ccccc2[n+](C)c2c1oc1ccc(OCC3CC[N+](C)(C)CC3)cc12`, the result in test [3], in test [4] and in test [5] was Active.
